From ChEMBL document CHEMBL1130972, “Sugar-substituted 2-azetidinones as cholesterol absorption inhibitors” (1998)

What was measured:
[1] = system: Cricetinae gen. sp.; assay: Tested for inhibition of serum cholesterol absorption in cholesterol-fed hamsters at a oral dose of 10 mg/Kg/day; assay type: functional, hamster
[2] = system: Cricetinae gen. sp.; assay: Tested for inhibition of liver cholesterol esters absorption in cholesterol-fed hamsters at a oral dose of 10 mg/Kg/day; assay type: functional, Cricetulus griseus
[3] = system: Cricetinae gen. sp.; assay: Tested for inhibition of serum cholesterol absorption in cholesterol-fed hamsters at a oral dose of 8 mg/Kg/day; assay type: functional, Cricetulus griseus
[4] = system: Cricetinae gen. sp.; assay: Tested for inhibition of liver cholesterol esters absorption in cholesterol-fed hamsters at a oral dose of 8 mg/Kg/day; assay type: functional, Cricetulus griseus

| SMILES | Reduction [1] [%] | Reduction [2] [%] | Reduction [3] [%] | Reduction [4] [%] |
| --- | --- | --- | --- | --- |
| COc1ccc(N2C(=O)[C@H](CCCc3ccccc3)[C@H]2c2ccc(O[C@@H]3O[C@H](C(=O)O)[C@@H](O)[C@H](O)[C@H]3O)cc2)cc1 | -10 | -9 |  |  |
| COc1ccc(N2C(=O)[C@H](CCCc3ccccc3)[C@H]2c2ccc(O[C@@H]3O[C@H](CO)[C@@H](O)[C@H](O)[C@H]3O)cc2)cc1 | -29 | -86 |  |  |
| COc1ccc(N2C(=O)[C@H](CCCc3ccccc3)[C@H]2c2ccc(O)cc2)cc1 | -25 | -70 |  |  |
| COc1ccc(N2C(=O)[C@H](CCCc3ccccc3)[C@H]2c2ccc(OC[C@H]3O[C@H](OC)[C@H](O)[C@@H](O)[C@@H]3O)cc2)cc1 | -10 | -48 |  |  |
| COc1ccc([C@@H]2[C@@H](CCCc3ccccc3)C(=O)N2c2ccc(OC)cc2)cc1 [SCH-48461] | -43 | -93 |  |  |
| COC(=O)[C@H]1O[C@@H](Oc2ccc([C@@H]3[C@@H](CCCc4ccccc4)C(=O)N3c3ccc(OC)cc3)cc2)[C@H](O)[C@@H](O)[C@@H]1O |  |  | -23 | -62 |
| COc1ccc(N2C(=O)[C@H](CCCc3ccccc3)[C@H]2c2ccc(O[C@@H]3O[C@H](COCc4ccccc4)[C@@H](OCc4ccccc4)[C@H](OCc4ccccc4)[C@H]3OCc3ccccc3)cc2)cc1 | -9 | -21 |  |  |
